Measurements published in patent publication US5811393A (The Childrens Medical Center Corp., priority 1993, dated 1998).
Blank lines part the entries; values can stand above or below the molecule they belong to.

Legend:
[1] = biological target: EGF receptor on bovine aortic smooth muscle cells (BASMC) (bovine)
[2] = test system: bovine aortic smooth muscle cells (BASMC); test: Bovine aortic smooth muscle cell proliferation by cell counting; type: cell-based; details: cells counted after three days, 1% calf serum
Description: Bovine aortic smooth muscle cell proliferation was also assayed by counting cell number following growth factor stimulation. In these experiments, cells were plated sparsely in 24 well plates in DMEM/10% bovine calf serum/1% GPS (100% GPS is glutamine 29.2 mg/ml, penicillin 10,000 units/ml, streptomycin sulfate 10,000 μg/ml; GIBCO, Grand Island, N.Y.) at 10^4 cells/well. Test samples were then added and, after three days, cells were removed by trypsinization and counted in a Coulter counter (Coulter, Hialeah, Fla.).
BASMC were plated in DMEM, 10% calf serum, 100 U/ml penicillin, 100 μg/ml streptomycin sulfate at 5×10^3 cells/well in a 24 well plate, and, after attachment of the cells (e.g., following an overnight incubation), the media was replaced with DMEM, 1% calf serum, and penicillin and streptomycin as above. HB-EHM, recombinant human EGF (Creative Biomolecules, Hopkinton, Mass.), or recombinant PDGF (Creative Biomolecules, Hopkinton, Mass.) was then added to the wells. Cells were counted after three days.

[3] = cited from earlier work
EGF receptors on BASMC = test: Competitive [125I]EGF binding to bovine aortic smooth muscle cells; details: BASMC
Description: Competitive binding assays were used to measure this interaction and were performed as follows.

EGF receptor = EGF receptor autophosphorylation in A-431 cells (anti-phosphotyrosine Western blot); type: cell-based, human; details: 5 ng/ml, 15 minutes
Description: This was shown by plating A-431 cells in 6-well plates and culturing in Dulbecco's Modified Eagle's Medium (DMEM) containing 10% fetal bovine serum and antibiotics. […] After 15 minutes, the cells were washed with ice-cold phosphate-buffered saline containing 0.4 mm EDTA, 10 mM Na-fluorate, 10 mM Na-pyrophosphate and 0.4 mM Na-orthovanadate, scraped and lysed in 100 μl of PI/RIPA buffer [1% NP-40 (Pierce, Rockford, Ill.), 1% deoxycholate (Aldrich, Milwaukee, Wis.), 0.1% SDS, 1% aprotinin (Boehringer-Mannheim, Indianapolis, Ind.), 1 mM PMSF (Pierce), 2 mM EDTA (Sigma), 10 mM Na-fluorate, (Sigma, St. Louis, Mo.), 10 mM Na-pyrophosphate (Baker, Phillipsburg, N.J.), 0.4 mM Na-orthovanadate, (Aldrich), 10 mM iodoacetamide (Aldrich) in phosphate buffered saline]. Thirty μl of supernatant clarified by spinning for a 5 minute period in a microfuge was analyzed by reducing SDS/polyacrylamide gel electrophoresis (6% polyacrylamide gel). […] A standard of phosphorylated EGF receptor was purchased from UBI (Lake Placid, N.Y.).

[4] = biological target: EGF receptor on bovine aortic smooth muscle cells (BASMC) (bovine); remark: listed apart in the source
BALB/c mouse 3T3 cells = test: DNA synthesis ([3H]-thymidine incorporation) / proliferation of BALB/c mouse 3T3 cells; type: cell-based; details: E. coli-produced protein
Description: Conditioned medium was assayed for growth factor activity directly, as described below, using either fibroblasts (i.e., BALB/c mouse 3T3 cells), epithelial cells (i.e., human keratinocytes), or smooth muscle cells (i.e., bovine aortic smooth muscle cells, BASMC). Alternatively, CM was first fractionated by fast protein liquid chromatography (FPLC, Pharmacia, Piscataway, N.J.) by applying 500 ml of the CM to a TSK-heparin 5PW column (8×75 mm, TOSOHAAS, Philadelphia, Pa.). The column was washed with 10 column volumes of equilibration buffer (0.2M NaCl, 0.01M Tris-HCl, pH 7.5), and bound protein was eluted with a 40 ml linear gradient of 0.2-2M NaCl in 0.01M Tris-HCl , pH 7.4 at 1 ml/min. Fractions (2.5 ml) were tested for growth factor activity by measuring the effect of aliquots of the fractions on DNA synthesis in, or the proliferation of, BALB/c mouse 3T3 cells; such activity was monitored by assaying the incorporation of [^3 H]-thymidine into DNA and/or by measuring the increase in cell number. […] One unit of BALB/c mouse 3T3 stimulation activity was defined as the amount of growth factor required to stimulate half-maximal DNA synthesis in BALB/c mouse 3T3 cells under the conditions described in Shing et al. (supra).

BASMC proliferation (cell count after three days) (fold increase) [1]: 2.5
Molecule: recombinant human EGF (from UniProt P01133) (ligand)

Molecule: PDGF
increase in BASMC proliferation ([2]; 500 pg/ml): 2.5 fold | NaCl concentration eluting from immobilized heparin columns ([3]; literature values): 0.5 M

IC50 (EGF receptors on BASMC; read-out: 50% inhibition of [125I]EGF binding, molar value in brackets): 0.048 nM
Molecule: EGF: epidermal growth factor, recombinant human, commercial comparator [reference compound]
increase in BASMC proliferation ([2]; 4 ng/ml): 2.5 fold | 50% inhibition of [125I]EGF binding (EGF receptors on BASMC; 6-well plates): 290 pg/mL | autophosphorylation of the EGF receptor (170 kDa protein) (EGF receptor): also phosphorylated | binding to heparin ([3]; conditions of the cited references): does not bind heparin to any substantial extent

Maximal Stimulation (ng/ml), from 3H-thymidine incorporation into smooth muscle cell DNA, C4 RP-HPLC step [4]: 0.5 ng/mL | BASMC proliferation (cell count after three days) (fold increase) [1]: 2.5
B1: heparin binding EGF-homologous mitogen (HB-EHM), purified from U-937 conditioned medium, 33 minute peak form (ligand)
chain: RVTLSSKPQALATPNKEEHGKRKKKGKGLGKKRDPCLRKYKDFCIHGECKYVKELRAPSCICHPGYHGERCHGLS
modifications: O-linked glycosylation (suggested by O-glycanase treatment; the threonines predicted at positions 2 and 12 of the form first sequenced were not detected in protein sequencing)

B2: recombinant HB-EHM: HB-EHM produced in E. coli from plasmid pNA28 as CAT fusion, cleaved, refolded and purified (protein)
chain: RVTLSSKPQALATPNKEEHGKRKKKGKGLGKKRDPCLRKYKDFCIHGECKYVKELRAPSCICHPGYHGERCHGLS
modifications: O-linked glycosylation (suggested by O-glycanase treatment; the threonines predicted at positions 2 and 12 of the form first sequenced were not detected in protein sequencing)
activity in the BALB/c 3T3 [3H]-thymidine uptake/incorporation assay (BALB/c mouse 3T3 cells): active
